SMILES strings stand for the structures.

Data on 9 molecules can be found in patent US20250312352A1, “GLP-1R MODULATING COMPOUNDS” (Gilead Sciences, Inc., priority 2021, published 2025).

The test deals with T1, GLP-1R (Homo sapiens, UniProt P43220).
T1 construct: host or cells: CHO cells
T1 sequence (P43220 24-463): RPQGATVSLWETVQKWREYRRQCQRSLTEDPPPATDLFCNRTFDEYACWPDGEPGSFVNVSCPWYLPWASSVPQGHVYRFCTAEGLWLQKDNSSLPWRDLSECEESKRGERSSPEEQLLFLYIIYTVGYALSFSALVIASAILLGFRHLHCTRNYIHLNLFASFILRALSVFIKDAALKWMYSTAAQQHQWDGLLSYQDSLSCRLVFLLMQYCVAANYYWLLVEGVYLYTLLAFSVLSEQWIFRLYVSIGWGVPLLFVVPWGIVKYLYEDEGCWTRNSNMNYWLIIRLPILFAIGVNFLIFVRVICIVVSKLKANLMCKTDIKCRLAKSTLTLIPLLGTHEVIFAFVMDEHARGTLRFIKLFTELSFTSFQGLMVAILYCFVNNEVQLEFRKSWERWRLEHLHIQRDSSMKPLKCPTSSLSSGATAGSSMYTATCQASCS
As to the kind of experiment: GLP-1R activation cAMP assay (Assay 1 or Assay 2). It counts as cell-based. The conditions noted are these: cAMP increase in CHO cells stably expressing GLP-1R; compounds run on one of the two cAMP assays. The method, boiled down:
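CHO cells stably expressing human GLP-1R were incubated 1 h in HBSS/20 mM HEPES/0.1% BSA, then exposed to 10-point agonist dilutions for 30 min at 37 °C. cAMP increase was measured with an HTRF Gs dynamic kit; EC50 from sigmoidal fit of response versus log concentration.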
A general note: Changes in cAMP serve as a functional read-out for many G protein-coupled receptors.
Take `Cn1c(COc2cccc(-c3cc(F)c(Cc4nc5ccc(C(=O)O)cc5n4C[C@@H]4CCO4)cc3F)n2)nc2ccccc21` [Example 48, (S)-2-(2,5-difluoro-4-(6-((1-methyl-1H-benzo[d]imidazol-2-yl)methoxy)pyridin-2-yl)benzyl)-1-(oxetan-2-ylmethyl)-1H-benzo[d]imidazole-6-carboxylic acid]: it took 2.33 nM to reach a half-maximal effect (EC50). In the case of `CCOC(=O)N1Cc2ccc(COc3cccc(-c4cc(F)c(Cc5nc6ccc(C(=O)O)cc6n5C[C@@H]5CCO5)cc4F)n3)cc2C1` [Example 435, (S)-2-(4-(6-((2-(ethoxycarbonyl)isoindolin-5-yl)methoxy)pyridin-2-yl)-2,5-difluorobenzyl)-1-(oxetan-2-ylmethyl)-1H-benzo[d]imidazole-6-carboxylic acid] it was 0.427 nM. For `O=C(O)c1ccc2nc(Cc3cc(F)c(-c4cccc(OCc5ncc(OCC(F)(F)F)s5)n4)cc3F)n(C[C@@H]3CCO3)c2c1` [Example 57, (S)-2-(2,5-difluoro-4-(6-((5-(2,2,2-trifluoroethoxy)thiazol-2-yl)methoxy)pyridin-2-yl)benzyl)-1-(oxetan-2-ylmethyl)-1H-benzo[d]imidazole-6-carboxylic acid], a half-maximal response (EC50) required 0.73 nM. On to `N#Cc1csc(COc2cccc(-c3cc(F)c(Cc4nc5ccc(C(=O)O)cc5n4C[C@@H]4CCO4)cc3F)n2)c1` [Example 130, (S)-2-(4-(6-((4-cyanothiophen-2-yl)methoxy)pyridin-2-yl)-2,5-difluorobenzyl)-1-(oxetan-2-ylmethyl)-1H-benzo[d]imidazole-6-carboxylic acid], for which it took 0.57 nM to reach a half-maximal effect (EC50). Turning to `COc1nnc(COc2nc(-c3cc(F)c(Cc4nc5ccc(C(=O)O)cc5n4CC4(CF)CC4)cc3F)ccc2F)s1` [Example 268, 2-(2,5-difluoro-4-(5-fluoro-6-((5-methoxy-1,3,4-thiadiazol-2-yl)methoxy)pyridin-2-yl)benzyl)-1-((1-(fluoromethyl)cyclopropyl)methyl)-1H-benzo[d]imidazole-6-carboxylic acid], the midpoint of the response, the EC50, lay at 0.762 nM. Regarding `COc1ncc(C#Cc2cnc(COc3cccc(-c4cc(F)c(Cc5nc6ccc(C(=O)O)cc6n5C[C@@H]5CCO5)cc4F)n3)c(F)c2)s1` [Example 294, (S)-2-(2,5-difluoro-4-(6-((3-fluoro-5-((2-methoxythiazol-5-yl)ethynyl)pyridin-2-yl)methoxy)pyridin-2-yl)benzyl)-1-(oxetan-2-ylmethyl)-1H-benzo[d]imidazole-6-carboxylic acid], the EC50 (as a rule, the concentration at which the effect is half-maximal) worked out at 0.182 nM. `N#Cc1cnc(COc2cccc(-c3cc(F)c(Cc4nc5c(F)cc(C(=O)O)cc5n4C[C@@H]4CCO4)cc3F)n2)s1` [Example 372, 2-[[4-[6-[(5-cyanothiazol-2-yl)methoxy]-2-pyridyl]-2,5-difluoro-phenyl]methyl]-7-fluoro-3-[[(2S)-oxetan-2-yl]methyl]benzimidazole-5-carboxylic acid] gave a half-maximal effective concentration (EC50) of 0.024 nM. `O=C(O)c1ccc2nc(Cc3cc(F)c(-c4cccc(OCc5cn6cccnc6n5)n4)cc3F)n(C[C@@H]3CCO3)c2c1` [Example 29, (S)-2-(2,5-difluoro-4-(6-(imidazo[1,2-a]pyrimidin-2-ylmethoxy)pyridin-2-yl)benzyl)-1-(oxetan-2-ylmethyl)-1H-benzo[d]imidazole-6-carboxylic acid] displayed an EC50 of 13.7 nM. Regarding `Cc1cc(Cc2nc3c(F)cc(C(=O)O)cc3n2C[C@@H]2CCO2)c(F)cc1-c1cccc(OCc2ccc(C#Cc3cnn(C)c3)cc2F)n1` [Example 153, (S)-4-fluoro-2-(2-fluoro-4-(6-((2-fluoro-4-((1-methyl-1H-pyrazol-4-yl)ethynyl)benzyl)oxy)pyridin-2-yl)-5-methylbenzyl)-1-(oxetan-2-ylmethyl)-1H-benzo[d]imidazole-6-carboxylic acid], the EC50 was 0.36 nM.
